Patent publication US11878966B2, “Substituted 4-benzyl and 4-benzoyl piperidine derivates” (89BIO LTD, priority 2015, dated 2024)
Where a name gives a salt, the structure may show the parent alone.

Assays:
[1] = biological target: T1, recombinant human baculovirus-expressed GST-tagged FASN (Homo sapiens, UniProt P49327); test: FASN enzyme activity assay: fluorescence-based detection of CoA with CPM; type: biochemical; details: 5 nM FASN, 150 μM NADPH, 10 μM acetyl-CoA, 25 μM malonyl-CoA, 90 minutes incubation
T1 construct: GST; host or cells: baculovirus expression system (insect cells implied)
Method in brief: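 GST-tagged human FASN (5 nM, baculovirus-expressed) in 50 mM HEPES pH 7.5 with 150 μM NADPH, 10 μM acetyl-CoA and 25 μM malonyl-CoA, 0.5% DMSO, started with malonyl-CoA and run 90 min. CoA was detected with CPM (30 min; ex 390/em 530 nm). IC50 came from sigmoidal variable-slope fits of % inhibition.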

T1 sequence (P49327 whole entry): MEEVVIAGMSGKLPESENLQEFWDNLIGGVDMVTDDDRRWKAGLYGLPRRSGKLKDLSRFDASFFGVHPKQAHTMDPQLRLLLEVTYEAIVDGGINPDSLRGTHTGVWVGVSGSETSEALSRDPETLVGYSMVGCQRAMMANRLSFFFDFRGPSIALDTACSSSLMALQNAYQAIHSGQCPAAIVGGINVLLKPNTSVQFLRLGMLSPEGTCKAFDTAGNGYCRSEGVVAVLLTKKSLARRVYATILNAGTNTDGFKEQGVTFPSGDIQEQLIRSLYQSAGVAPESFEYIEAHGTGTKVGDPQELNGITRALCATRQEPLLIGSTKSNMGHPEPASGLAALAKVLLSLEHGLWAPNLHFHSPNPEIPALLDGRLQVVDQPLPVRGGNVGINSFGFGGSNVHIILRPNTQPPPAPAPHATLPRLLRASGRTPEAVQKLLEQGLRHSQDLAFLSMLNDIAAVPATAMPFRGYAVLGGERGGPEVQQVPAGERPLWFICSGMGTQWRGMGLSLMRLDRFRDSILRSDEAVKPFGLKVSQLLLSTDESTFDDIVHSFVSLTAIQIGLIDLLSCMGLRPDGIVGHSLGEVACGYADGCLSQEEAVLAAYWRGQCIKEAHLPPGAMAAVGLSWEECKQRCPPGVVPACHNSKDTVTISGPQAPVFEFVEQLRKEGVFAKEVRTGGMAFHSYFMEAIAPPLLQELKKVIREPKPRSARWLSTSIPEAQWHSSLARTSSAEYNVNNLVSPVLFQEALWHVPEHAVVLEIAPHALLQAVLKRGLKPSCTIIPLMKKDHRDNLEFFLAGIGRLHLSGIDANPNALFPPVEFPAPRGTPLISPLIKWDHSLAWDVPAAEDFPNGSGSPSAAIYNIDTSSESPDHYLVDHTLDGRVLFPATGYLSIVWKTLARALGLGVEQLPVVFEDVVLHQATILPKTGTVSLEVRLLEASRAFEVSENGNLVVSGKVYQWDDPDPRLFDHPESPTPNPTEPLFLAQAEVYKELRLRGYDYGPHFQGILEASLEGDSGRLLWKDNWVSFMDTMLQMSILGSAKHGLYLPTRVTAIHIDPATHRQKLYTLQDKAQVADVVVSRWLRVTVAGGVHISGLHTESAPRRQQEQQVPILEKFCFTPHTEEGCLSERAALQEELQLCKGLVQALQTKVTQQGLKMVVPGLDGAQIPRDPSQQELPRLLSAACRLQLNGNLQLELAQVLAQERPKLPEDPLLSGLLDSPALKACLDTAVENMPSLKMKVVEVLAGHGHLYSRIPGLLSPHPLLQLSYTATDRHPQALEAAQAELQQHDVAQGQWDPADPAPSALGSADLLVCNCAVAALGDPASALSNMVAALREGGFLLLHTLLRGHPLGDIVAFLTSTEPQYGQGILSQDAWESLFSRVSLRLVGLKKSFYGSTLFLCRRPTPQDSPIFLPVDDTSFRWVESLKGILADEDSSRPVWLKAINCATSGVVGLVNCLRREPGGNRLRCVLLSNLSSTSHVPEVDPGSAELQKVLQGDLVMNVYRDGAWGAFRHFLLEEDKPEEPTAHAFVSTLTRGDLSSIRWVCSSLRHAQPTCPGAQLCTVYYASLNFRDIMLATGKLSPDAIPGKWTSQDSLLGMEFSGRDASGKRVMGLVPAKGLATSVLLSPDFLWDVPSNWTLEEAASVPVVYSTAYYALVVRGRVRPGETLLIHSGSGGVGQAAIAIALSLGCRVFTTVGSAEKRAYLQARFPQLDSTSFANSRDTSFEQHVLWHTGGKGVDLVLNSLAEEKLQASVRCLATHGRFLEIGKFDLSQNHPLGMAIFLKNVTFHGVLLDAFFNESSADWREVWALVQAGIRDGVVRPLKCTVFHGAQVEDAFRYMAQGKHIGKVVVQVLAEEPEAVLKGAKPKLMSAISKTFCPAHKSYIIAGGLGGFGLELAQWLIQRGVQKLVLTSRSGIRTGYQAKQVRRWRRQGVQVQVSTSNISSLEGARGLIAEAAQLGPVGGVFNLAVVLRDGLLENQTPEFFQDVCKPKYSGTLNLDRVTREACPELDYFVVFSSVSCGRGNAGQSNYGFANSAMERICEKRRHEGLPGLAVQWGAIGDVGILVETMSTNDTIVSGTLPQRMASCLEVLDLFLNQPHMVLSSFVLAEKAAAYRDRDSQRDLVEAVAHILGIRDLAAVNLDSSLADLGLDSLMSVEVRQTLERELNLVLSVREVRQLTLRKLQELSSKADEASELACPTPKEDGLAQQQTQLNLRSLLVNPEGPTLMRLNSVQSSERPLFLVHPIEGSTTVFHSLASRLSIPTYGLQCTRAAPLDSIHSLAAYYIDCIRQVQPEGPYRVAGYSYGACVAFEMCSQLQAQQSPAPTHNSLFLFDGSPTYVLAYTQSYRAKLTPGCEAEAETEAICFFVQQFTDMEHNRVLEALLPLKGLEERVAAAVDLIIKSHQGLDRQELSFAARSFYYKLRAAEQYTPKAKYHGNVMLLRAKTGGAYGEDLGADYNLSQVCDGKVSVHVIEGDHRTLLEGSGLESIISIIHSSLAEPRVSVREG

IC50 [1] [µM] | melting point [°C] | Structure (SMILES)
0.1 to 0.999 | 94 | CCC(=O)N1CCC(O)(Cc2ccc(-c3ccc4cnccc4c3)cc2)CC1 [Example 160, 1-(4-hydroxy-4-(4-(isoquinolin-6-yl)benzyl)piperidin-1-yl)propan-1-one]
– | 178 to 180 | CCC(=O)N1CCC(C(C)c2ccc(-c3cnc4ccccc4c3)cc2)CC1 (centres unmarked) (as salt: HCl) [Example 39, 1-(4-(1-(4-(quinolin-3-yl)phenyl)ethyl)piperidin-1-yl)propan-1-one]
1 to 10 | 196 | CC(C)C(=O)N1CCC(O)(Cc2ccc(-c3cncc4ccccc34)cc2)CC1 [Example 159, 1-(4-hydroxy-4-(4-(isoquinolin-4-yl)benzyl)piperidin-1-yl)-2-methylpropan-1-one]
1 to 10 | 153 | CC(C)C(=O)N1CCC(O)(Cc2ccc(-c3ccc4cccnc4c3)cc2)CC1 [Example 151, 1-(4-hydroxy-4-(4-(quinolin-7-yl)benzyl)piperidin-1-yl)-2-methylpropan-1-one]
1 to 10 | 76 | CCC(=O)N1CCC(O)(Cc2ccc(-c3ccc4occc4c3)cc2)CC1 [Example 152, 1-(4-(4-(benzofuran-5-yl)benzyl)-4-hydroxypiperidin-1-yl)propan-1-one]
0.001 to 0.099 | 102 to 105 | COc1c(-c2ccc(CC3(C#N)CCN(C(=O)[C@H]4CCCO4)CC3)cc2)ccc2cccnc12 [Example 91, 4-[4-(8-Methoxyquinolin-7-yl)-benzyl]-1-((R)-tetrahydrofuran-2-carbonyl)-piperidine-4-carbonitrile]
1 to 10 | 168 | CC(C)C(=O)N1CCC(O)(Cc2ccc(-c3cnc4ccccc4c3)cc2)CC1 [Example 149, 1-(4-hydroxy-4-(4-(quinolin-3-yl)benzyl)piperidin-1-yl)-2-methylpropan-1-one]
– | 215 to 219 | CCC(=O)N1CCC(C(C)c2ccc(-c3cnc4ccccc4c3)cc2)CC1 (single isomer, unassigned) (as salt: HCl) [Example 67, 1-{4-[1-(4-Quinolin-3-yl-phenyl)-ethyl]-piperidin-1-yl}-propan-1-one]
1 to 10 | 129 | CC(C)C(=O)N1CCC(O)(Cc2ccc(-c3ccc4occc4c3)cc2)CC1 [Example 153, 1-(4-(4-(benzofuran-5-yl)benzyl)-4-hydroxypiperidin-1-yl)-2-methylpropan-1-one]
1 to 10 | 174 | CCC(=O)N1CCC(O)(Cc2ccc(-c3cc4ccccc4o3)cc2)CC1 [Example 156, 1-(4-(4-(benzofuran-2-yl)benzyl)-4-hydroxypiperidin-1-yl)propan-1-one]
1 to 10 | 100 | CCC(=O)N1CCC(O)(Cc2ccc(-c3ccc4[nH]ccc4c3)cc2)CC1 [Example 154, 1-(4-(4-(1H-indol-5-yl)benzyl)-4-hydroxypiperidin-1-yl)propan-1-one]
0.1 to 0.999 | 171 | CCC(=O)N1CCC(O)(Cc2ccc(-c3ccc4cccnc4c3)cc2)CC1 [Example 150, 1-(4-hydroxy-4-(4-(quinolin-7-yl)benzyl)piperidin-1-yl)propan-1-one]
1 to 10 | 175 | CC(C)C(=O)N1CCC(O)(Cc2ccc(-c3ccc4cnccc4c3)cc2)CC1 [Example 147, 1-[4-Hydroxy-4-(4-isoquinolin-6-yl-benzyl)-piperidin-1-yl]-2-methyl-propan-1-one]
0.001 to 0.099 | 153 to 155 | CCC(=O)N1CCC(C2(c3ccc(-c4cnc5ccccc5c4)cc3)CC2)CC1 [Example 40, 1-{4-[1-(4-quinolin-3-yl-phenyl)-cyclopropyl]-piperidin-1-yl}-propan-1-one]
– | 219 to 221 | CCC(=O)N1CCC(C(C)c2ccc(-c3cnc4ccccc4c3)cc2)CC1 (single isomer, unassigned) (as salt: HCl) [Example 68, 1-{4-[1-(4-Quinolin-3-yl-phenyl)-ethyl]-piperidin-1-yl}-propan-1-one]
0.001 to 0.099 | 100 to 102 | C=C(c1ccc(-c2cnc3ccccc3c2)cc1)C1CCN(C(=O)C2CC2)CC1 [Example 41, Cyclopropyl-{4-[1-(4-quinolin-3-yl-phenyl)-vinyl]-piperidin-1-yl}-methanone]
1 to 10 | 203 | CC(C)C(=O)N1CCC(O)(Cc2ccc(-c3cc4ccccc4o3)cc2)CC1 [Example 157, 1-(4-(4-(benzofuran-2-yl)benzyl)-4-hydroxypiperidin-1-yl)-2-methylpropan-1-one]
1 to 10 | 89 | CCC(=O)N1CCC(O)(Cc2ccc(-c3cnc4ccccc4c3)cc2)CC1 [Example 148, 1-(4-hydroxy-4-(4-(quinolin-3-yl)benzyl)piperidin-1-yl)propan-1-one]
1 to 10 | 78 | CCC(=O)N1CCC(O)(Cc2ccc(-c3cncc4ccccc34)cc2)CC1 [Example 158, 1-(4-hydroxy-4-(4-(isoquinolin-4-yl)benzyl)piperidin-1-yl)propan-1-one]
1 to 10 | 176 | CC(C)C(=O)N1CCC(O)(Cc2ccc(-c3ccc4[nH]ccc4c3)cc2)CC1 [Example 155, 1-(4-(4-(1H-indol-5-yl)benzyl)-4-hydroxypiperidin-1-yl)-2-methylpropan-1-one]
1 to 10 | 169 to 171 | CCC(=O)N1CCC(C(C)c2ccc(-c3ccc4c(c3)NCCC4)cc2)CC1 (centres unmarked) [Example 38, 1-(4-(1-(4-(1,2,3,4-tetrahydroquinolin-7-yl)phenyl)ethyl)piperidin-1-yl)propan-1-one]
0.001 to 0.099 | – | CCC(=O)N1CC=C(Cc2ccc(-c3ccc4occc4c3)cc2)CC1 [Example 170, 1-(4-(4-(benzofuran-5-yl)benzyl)-5,6-dihydropyridin-1(2H)-yl)propan-1-one]
0.001 to 0.099 | – | CCC(=O)N1CCC(C(C)c2ccc(-c3ccc4cccnc4c3C)cc2)CC1 (centres unmarked) [Example 62, 1-(4-{1-[4-(8-methylquinolin-7-yl)-phenyl]-ethyl}-piperidin-1-yl)-propan-1-one]
